# Where “and” joins values, the source holds several entries; their conditions need not be identical. Equal values may be shown once.
# Columns and labels:
# EGFR del L747-P753 Ins S = target: T1, EGFR del L747-P753 Ins S (Homo sapiens, UniProt P00533, DEL747-752/P753S); assay: KinaseSeeker competition binding assay
# T1 construct: made in house; host or cells: cell-free system (rabbit reticulocyte lysate)
# Method: (§1) Compound Reno647 was profiled against the following panel of kinases at 2 μM using the KinaseSeeker™ assay: ABL1, AKT1, AKT2, AKT3, ALK, AURKA, AXL, BRAF, BTK, CDK2, CDK5, CDK7, CDK8, CSF1R, DDR1, EGFR del L747-P753 InsS, EGFR (L861Q), EGFR (G719S), EGFR, EGFR (L858R), EPHA2, EPHB2, FGFR3, FLT1/VEGFR1, FLT2/FGFR1, FLT3, FLT4/VEGFR3, GSK-3a, HER2, IGF1R, INSR, KIT, LIMK1, MET, MLK2/MAP3K10, RPS6KA5/MSK1, MUSK, p38a/MAPK12, PDGFRA, PDGFRB, PDK1, RET, RIPK2, RPS6KA1/RSK1, SRC, TEC, TESK1, TRKB, VEGFR2, and YES 1.
# (§2) KinaseSeeker is a homogeneous competition binding assay where the displacement of an active site dependent probe by an inhibitor is measured by a change in luminescence signal (see FIG. 7). Luminescence readout translates into a highly sensitive and robust assay with low background and minimal interference from test compounds.
# (§3) (Jester, Cox et al. 2010; Jester, Gaj et al. 2012): 10 mM stock of compound Reno647 was diluted in DMSO to a concentration of 50 μM. Prior to initiating a profiling campaign, the compound was evaluated for false positive against split-luciferase. The compound was then screened in duplicate against each of the kinases. For kinase assays, each Cfluc-Kinase was translated along with Fos-Nfluc using a cell-free system (rabbit reticulocyte lysate) at 30° C. for 90 min. A 24 μL aliquot of this lysate containing either 1 μL of DMSO (for no-inhibitor control) or compound solution in DMSO (2 LM final concentration) was incubated for 30 minutes at room temperature followed by 1 hour in the presence of a kinase specific probe. A 80 μL of luciferin assay reagent was added to each solution and luminescence was immediately measured on a luminometer.
# (§4) The % Inhibition and % Activity Remaining were calculated using the following equations:
# (§5) % inhibition=(ALUcontrol−ALUsample)×100
# (§6) % activity=100−% inhibition.
# (§7) The same assay design was used as described in example section 3.1.
# (§8) 10 mM stock solutions of compound Reno647 was serially diluted in DMSO to make assay stocks. Prior to initiating IC50 determination, the test compound was evaluated for false positive against split-luciferase.
# (§9) Reno647 was screened against 6 kinases (EGFR, EGFR del L747 P753 InsS, EGFR G719S, EGFR L858R, EGFR L861Q, RIPK2) at a minimum of 8 different concentrations in duplicate. For kinase assays, a 24 μL aliquot of lysate containing Cfluc-kinase and Fos-Nfluc was incubated for 30 minutes at room temperature with either 1 μL of DMSO (for no-inhibitor control) or compound solution in DMSO, followed by 1 hour incubation in the presence of a kinase specific probe. A 80 μL of luciferin assay reagent was added to each solution and luminescence was immediately measured on a luminometer.
# (§10) % inhibition=(ALUcontrol−ALUsample)/ALcontrol×100
# (§11) The % Activity was plotted against compound concentration and the IC50 was determined for each compound using an 8-point curve.
# EGFR = target: T2, EGFR (Homo sapiens, UniProt P00533); assay: KinaseSeeker competition binding assay
# T2 construct: made in house; host or cells: cell-free system (rabbit reticulocyte lysate)
# Method: as §1, §2, §3, §4, §5, §6, §7, §8, §9, §10, §11
# HCC827-OR16 = assay: qRT-PCR expression of p21; type: cell-based, human; settings: HCC827-OR16, 24 h, q-RT-PCR
# Method: FIG. 10 depicts the effect of Reno647 on expressions of Caspase 3, Caspase 9 and p21 in HCC827-P and on Box, Bcl2, p53 and p21 in HCC827-OR16 cells. […] Total cellular RNA was extracted and cDNA was prepared followed by qRT-PCR using specific probes as described in the section of Materials and Methods. Tgene ΔCt value was normalized for GAPDH by calculating ΔCt=Ctgene−CtGAPDH per sample.
# HCC827 P or other indicated cells at exponential growth phase were treated with indicated concentrations of compounds for 24 hours. Total cellular RNA was prepared from lysed tumor cells using an RNA Purification kit (ThermoFisher Scientific). The first-strand of cDNA was synthesized using a High Capacity cDNA reverse transcription kit (ThermoFisher Scientific) in PTC-100 Peltier Thermal Cycler PCR. The resultant cDNA (0.5-1 μL) was used in a 10 μl reaction by using Taqman Universal PCR Master Mix (ThermoFisher Scientific). The pre-designed primers and probe were purchased from Life Technologies and used for qPCR. Human GAPDH was used as an internal control. qPCR was performed using Applied Biosystems StepOne and StepOnePlus Real-Time PCR Systems according manufacturer's instructions. An initial PCR denaturation step was performed at 95° C. for 20 seconds. […]
# T1 sequence (P00533 with tags, fused parts or gaps DEL747-752/P753S): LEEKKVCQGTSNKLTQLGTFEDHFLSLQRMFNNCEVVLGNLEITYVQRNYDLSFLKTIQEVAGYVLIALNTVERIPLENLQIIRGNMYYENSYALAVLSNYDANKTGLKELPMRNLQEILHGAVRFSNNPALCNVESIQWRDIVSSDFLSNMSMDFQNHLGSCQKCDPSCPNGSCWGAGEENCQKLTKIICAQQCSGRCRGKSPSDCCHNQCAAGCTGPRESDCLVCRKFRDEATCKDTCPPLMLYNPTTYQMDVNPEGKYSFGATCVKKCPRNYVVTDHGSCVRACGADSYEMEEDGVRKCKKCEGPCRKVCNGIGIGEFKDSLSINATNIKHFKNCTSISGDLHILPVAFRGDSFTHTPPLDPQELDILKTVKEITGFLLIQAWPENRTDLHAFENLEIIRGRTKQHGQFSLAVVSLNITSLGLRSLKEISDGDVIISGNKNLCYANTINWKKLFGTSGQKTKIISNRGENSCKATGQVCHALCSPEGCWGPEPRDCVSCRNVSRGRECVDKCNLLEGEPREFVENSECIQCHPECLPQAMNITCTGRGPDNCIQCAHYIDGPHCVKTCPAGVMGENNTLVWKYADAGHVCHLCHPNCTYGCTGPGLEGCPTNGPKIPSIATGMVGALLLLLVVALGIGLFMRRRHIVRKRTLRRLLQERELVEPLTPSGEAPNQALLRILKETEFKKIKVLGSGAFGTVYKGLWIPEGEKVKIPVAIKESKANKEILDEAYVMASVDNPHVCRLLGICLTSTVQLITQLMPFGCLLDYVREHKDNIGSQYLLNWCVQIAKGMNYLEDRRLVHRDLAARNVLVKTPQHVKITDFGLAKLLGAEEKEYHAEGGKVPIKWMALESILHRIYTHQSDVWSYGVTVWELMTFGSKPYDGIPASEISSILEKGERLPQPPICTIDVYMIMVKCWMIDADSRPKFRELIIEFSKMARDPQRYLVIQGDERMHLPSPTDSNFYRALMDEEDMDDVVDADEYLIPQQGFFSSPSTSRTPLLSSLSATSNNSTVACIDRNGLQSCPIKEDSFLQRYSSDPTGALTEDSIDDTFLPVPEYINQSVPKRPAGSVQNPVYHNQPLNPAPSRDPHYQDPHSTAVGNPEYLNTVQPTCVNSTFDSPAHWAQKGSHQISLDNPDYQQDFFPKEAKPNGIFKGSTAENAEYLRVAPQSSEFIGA
# T2 sequence (P00533 25-1210): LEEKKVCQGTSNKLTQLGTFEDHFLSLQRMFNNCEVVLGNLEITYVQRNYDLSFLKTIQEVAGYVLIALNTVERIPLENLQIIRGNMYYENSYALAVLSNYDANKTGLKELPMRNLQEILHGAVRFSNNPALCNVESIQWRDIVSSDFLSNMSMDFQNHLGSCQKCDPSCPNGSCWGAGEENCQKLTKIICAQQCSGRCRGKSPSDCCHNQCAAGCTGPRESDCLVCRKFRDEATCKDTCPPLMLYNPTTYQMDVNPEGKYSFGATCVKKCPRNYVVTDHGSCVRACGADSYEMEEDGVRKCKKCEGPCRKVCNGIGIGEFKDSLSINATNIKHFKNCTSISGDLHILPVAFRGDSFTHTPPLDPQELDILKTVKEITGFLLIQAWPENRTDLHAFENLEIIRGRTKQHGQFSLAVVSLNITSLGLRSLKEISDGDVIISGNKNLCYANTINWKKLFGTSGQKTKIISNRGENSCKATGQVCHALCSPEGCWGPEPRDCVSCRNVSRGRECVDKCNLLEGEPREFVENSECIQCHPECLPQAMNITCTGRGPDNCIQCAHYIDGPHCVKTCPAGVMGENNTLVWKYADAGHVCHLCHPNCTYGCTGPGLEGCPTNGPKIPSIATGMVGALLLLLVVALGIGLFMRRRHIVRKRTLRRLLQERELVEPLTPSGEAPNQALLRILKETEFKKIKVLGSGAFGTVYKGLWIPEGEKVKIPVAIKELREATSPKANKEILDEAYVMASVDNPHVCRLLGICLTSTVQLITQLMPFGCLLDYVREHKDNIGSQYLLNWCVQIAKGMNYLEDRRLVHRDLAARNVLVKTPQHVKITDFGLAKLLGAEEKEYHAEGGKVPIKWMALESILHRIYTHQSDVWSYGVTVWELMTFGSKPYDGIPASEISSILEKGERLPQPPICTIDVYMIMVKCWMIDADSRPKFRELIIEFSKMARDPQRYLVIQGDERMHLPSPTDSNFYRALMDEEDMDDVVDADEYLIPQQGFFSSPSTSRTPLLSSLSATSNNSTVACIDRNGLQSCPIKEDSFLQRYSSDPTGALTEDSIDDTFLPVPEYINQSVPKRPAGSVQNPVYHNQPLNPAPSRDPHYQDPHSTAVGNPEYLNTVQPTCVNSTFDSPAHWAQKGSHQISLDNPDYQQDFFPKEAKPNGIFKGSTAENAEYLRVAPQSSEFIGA
smiles,measurement,setting,value
"C#Cc1cccc(Nc2ncnc3cc(OCCOC)c(NC(=O)c4ccc(F)c([N+](=O)[O-])c4)cc23)c1 [Reno647, 4-Fluoro-N-[4-(3-ethynyl-phenylamino)-7-(2-methoxy-ethoxy)-quinazolin-6-yl]-3-nitro-benzamide]",remaining binding at 2 µM,"EGFR del L747-P753 Ins S; 2 μM, EGFR del L747-P753 Ins S",14.8%
same,IC50,"EGFR del L747-P753 Ins S; 8-point curve, duplicate, read-out: IC50 EGFR del L747-P753 InsS",77.7 nM and 77 nM
same,remaining binding at 2 µM,"EGFR; 2 μM, wild-type EGFR",66.7%
same,IC50,"EGFR; 8-point curve, duplicate, read-out: IC50 wild-type of EGFR",25000 nM
same,p21 expression,HCC827-OR16,significant induction
